For assay [1], the system named is GABA turnover. Kind of assay: GABA turnover determination after maximal inhibition of GABA-T. It is filed as in vivo. To be noted: doses of 30 to about 300 mg/kg p.o. The source says: The activity of the compound of formula I on GABA turnover is evidenced in the following experiment: The determination of GABA turnover Is based on the linear increase in GABA level observed after the maximal inhibition of gamma-aminobutyric acid transaminase (GABA-T). The values obtained with this approach for the rate of GABA synthesis are independent of the inhibitors used and within the catalytic capacity of the enzymes involved in the GABA shunt.

Assay [2] concerns social withdrawal of intruder mice. As to the kind of experiment: social withdrawal of intruder mice. It is filed as in vivo. The following applies: dose range of 1 to about 100 mg/kg p.o. The source says: The activity of the compound of formula I in the treatment of affective and attention disorders treatment is also evidenced, for example, in tests suitable for detecting drugs having potential behavioural desinhibitory and/or sociotropic effects which are thought to be relevant for recovery from social withdrawal, a cardinal feature of depression and related psychiatric conditions. For instance, drug effects on social withdrawal of intruder mice can be evaluated by using the basic method as described in Triangle, 1982, 21:95-105 and J. Clin. Psychiatry, 1994, 55:9 (suppl. B) 4-7.

In assay [3] the test system is neuropathic mechanical hyperalgesia. As to the kind of experiment: model of neuropathic pain in the guinea pig (partial sciatic nerve ligation, mechanical hyperalgesia). The class given is in vivo, Dunkin Hartley guinea pigs. To be noted: paw withdrawal threshold, up to 6 hours. The source says:
The direct activity of the compound of formula I in the treatment of neuropathic pain is evidenced, for example, in the following model of neuropathic pain in the guinea pig: Dunkin Hartley guinea pigs are anaesthetised with enflurane (in N2O:O2 for guinea pigs) and the left sciatic nerve is exposed and partially ligated with thread. This procedure produces a mechanical hyperalgesia, which develops within 2-3 days and is maintained for at least 4 weeks. Paw withdrawal thresholds to a pressure stimulus are measured using an analgesymeter. Mechanical thresholds are taken on both the ipsilateral (ligated) and contralateral (unligated) paw prior to and then up to 6 hours following drug or vehicule administration. Reversal of hyperalgesia at each time point is calculated. Groups of 6 animals are used. Statistical analysis is carried out on withdrawal threshold readings using ANOVA followed by Tukey's HSD test.

Assay [4] concerns chronic pain in patients with diabetic neuropathy. Kind of assay: clinical trials in chronic pain in patients with diabetic neuropathy. The class given is in vivo. The following applies: Maintenance and Follow-up Periods. The source says:
The activity of the compound of formula I in the treatment of neuropathic pain and related disorders can be confirmed in clinical trials evaluating the efficacy of a compound in treating chronic pain in patients with diabetic neuropathy.

The values below come from US20050004102A1, “Monohydroxycarbamazepine for use in the preparation of a medicament for the treatment of affective and attention disorder and neuropathic pain” (priority 2001, published 2005).

Consider `NC(=O)N1c2ccccc2CC(O)c2ccccc21` (centres unmarked) [compound of formula I, 10-hydroxy-10,11-dihydro-carbamazepine], for which the GABA turnover rate entry in assay [1] is “dose-dependently inhibits”. Also, the “social investigation in the treated mouse” value in assay [2] was “increases social investigation”. Besides, the “reversal of neuropathic mechanical hyperalgesia” value in assay [3] (3 to about 100 mg/kg s.c.) is “significantly and dose-dependently reverses”; in assay [3] (10 to about 100 mg/kg p.o.) it was “significantly and dose-dependently reverses”. Besides, the “pain severity ratings relative to placebo” value in assay [4] is recorded as “decrease pain severity ratings”.
